Measured values: patent US20260144769A1, “4-PHENYLBUTYRATE RESTORED GABA UPTAKE AND REDUCED SEIZURES IN SLC6A1 VARIANT-MEDIATED DISORDERS” (Vanderbilt University, priority 2022, published 2026)

How the values were obtained:
GAT-1 (SLC6A1^+/S295L) = assay: 3H GABA uptake, cortical astrocytes from SLC6A1^+/S295L knockin mice; assay type: cell-based, mouse; settings: S295L heterozygous astrocytes; PBA 2 mM, 24 hr; SNAP5114 30 μM
Experimental: (§1) Mouse cortical astrocytes or neurons were cultured from postnatal pus at day 0-3 days old for astrocytes and day 0 for neurons from the SLC6A1^+/A288V or SLC6A1^+/S295L mouse line. FIGS. 7A-B show astrocytes under passage 2 were grown in […] dishes and passaged into 35-mm^2 dishes before GABA uptake assay.
(§2) FIGS. 7C-D show neurons directly cultured in the 35-mm^2 dishes and GABA uptake was evaluated between day 15-17 days after culture. CI-966 (50 μM) and NNC711 (35 μM) was applied 30 min before preincubation and removed during preincubation. GAT-3 inhibitor SNAP5114 (30 μM) was applied during GABA uptake to make sure only GAT-1 activity was measured. The wildtype astrocytes (FIGS. 7A-B) or cortical neurons (FIGS. 7C-D) of either SLC6A1^+/A288V or SLC6A1^+/S295L were taken as 1. The cultures derived from each mutant mouse was compared to the culture from its own wildtype littermates. […] The wildtype data were pooled from two mouse lines. […] The graph represents the relative GABA uptake level normalized to cells of its own genotype treated with DMSO. CI-966 (50 μM) or NNC-711 (35 μM) was applied 30 min before preincubation and removed during preincubation. Two-way analysis of variance followed by Bonferroni multiple comparison test was used. Values were expressed as mean±S.E.M. In FIG. 7A and FIG. 7C, ***p<0.001 vs. wt; § § § P<0.001 S295L vs. A288V. […]

GAT-1 = target: T1, GAT-1 (Mus musculus, UniProt P31648); assay: 3H GABA uptake, cortical astrocytes cultured from wildtype pups; assay type: cell-based; settings: wt astrocytes (pooled from two mouse lines); PBA 2 mM, 24 hr; SNAP5114 30 μM
T1 construct: endogenous in cells; host or cells: primary cortical astrocytes from wild-type littermate pups (C57BL/6J background), passage 2
Experimental: as §1, §2

GABA uptake activity normalized to its own DMSO condition (GAT-1): 1.22±0.058
Compound: O=C(O)CCCc1ccccc1 [PBA, 4-phenylbutyric acid]
GABA uptake activity normalized to its own DMSO condition (GAT-1 (SLC6A1^+/S295L)): 1.54±0.13
